The results in this text go back to patent US20240108745A1, “BIOACTIVE SUBSTANCE CONJUGATE, PREPARATION METHOD THEREFOR AND USE THEREOF” (MEDILINK THERAPEUTICS (SUZHOU) CO., LTD., priority 2021, published 2024).

Format in all cases: cell-based
The subject of assay [1] is HT29 cells. Briefly: Assay I of bioactive molecules on cell viability in vitro (CCK8). The note with it: Homo sapiens, HT-29, CCK8; read-out: EC50(nM), killing of HT29 cells. The procedure: (§1) Tumor cells were first cultured; the bioactive molecules of the present disclosure were co-cultured with tumor cells, and then CCK8 reagent (Dojindo Laboratories (Shanghai), Cat: CK04, Lot: JJ744) was added, and the activity of dehydrogenase in mitochondria was detected by reading (detection wavelength 450 nm) on a microplate reader (manufacturer: Molecular Devices, model: SpectraMax M2), to evaluate the inhibitory effect of bioactive molecules on cell proliferation.
(§2) In vitro cell viability assay method: bioactive molecules (12 concentration gradients) were diluted with corresponding assay medium (containing 2% FBS). The tumor cells were digested by conventional methods using trypsin, and cells in tube were collected and counted, then resuspended in the corresponding assay media (containing 2% FBS). The diluted bioactive molecules were added to a 96-well plate, followed by the cells. Then, 20 μL of CCK8 reagent was added to each well, and the reaction was carried out for 4 h, then the plate was read on a microplate reader (detection wavelength was 450 nm). The experimental results are shown in Tables 6.1, 6.2, 6.3, 6.4, and 6.5.

In assay [2] the test system is NCl-H358 cells. The assay is described as above. The note with it: Homo sapiens, read-out: EC50(nM), killing of NCl-H358 cells. The method, then:
as §1, §2

In assay [3] the test system is LS174T cells. The description is as above. As to conditions: Homo sapiens, read-out: EC50(nM), killing of LS174T cells. The procedure: as §1, §2
Assay [4] concerns HT29 cells. Description: Assay III of bioactive molecules on cell viability in vitro (CCK8). As to conditions: Homo sapiens, HT-29; CCK8, 3-4 days (Assay III); read-out: EC50(nM), killing of HT29 cells. The procedure:
Tumor cells HT29 (having a same source as the above) were first cultured. The bioactive molecules or fragments of the present disclosure were co-cultured with tumor cells, and then CCK8 reagent (Dojindo Laboratories (Shanghai), Cat: CK04, Lot: JJ744) was added, and the activity of dehydrogenase in mitochondria was detected by reading (detection wavelength 450 nm) on a microplate reader (manufacturer: Molecular Devices, model: SpectraMax M2), to evaluate the inhibitory effect of bioactive molecules on cell proliferation.
(§3) In vitro cell viability assay method: the tumor cells were digested by conventional methods using trypsin, and cells in tube were collected and counted, and then resuspended in the corresponding assay media (containing 2% FBS), which was added to a 96-well plate at 5000-10000 cells/well. Bioactive molecules were diluted with DMSO, and then added to a 96-well plate at 100 μL, the initial concentration was 10M, followed by 3-fold serial dilution (12 concentration gradients). The plate was incubated for 3-4 days at 37° C. under 5% CO2. Then, 20 μL of CCK8 reagent was added to each well, and the reaction was carried out for 2-6 h. The plate was read on a microplate reader (detection wavelength was 450 nm).

Assay [5] concerns HT29. Briefly: Assay II of bioactive molecules on cell viability in vitro (CCK8). As to conditions: Homo sapiens, HT-29; CCK8, 3-4 days. The procedure:
(§4) Tumor cells NUCG-4, PC-9, HT29, NCI-H358, KYSE520, A431 and A549 were first cultured; the bioactive molecules or fragments of the present disclosure were co-cultured with tumor cells, and then CCK8 reagent (Dojindo Laboratories (Shanghai), Cat: CK04, Lot: JJ744) was added, and the activity of dehydrogenase in mitochondria was detected by reading (detection wavelength 450 nm) on a microplate reader (manufacturer: Molecular Devices, model: SpectraMax M2), to evaluate the inhibitory effect of bioactive molecules on cell proliferation.
as §3, with “and then 100 μL was added to” for “and then added to”, “a 96-well plate, the initial” for “a 96-well plate at 100 μL, the initial”, “concentration was 10 μM, followed by” for “concentration was 10M, followed by”

Assay [6] has as its system PC-9. The description is as above. The note with it: Homo sapiens, CCK8, 3-4 days. The method, then:
as §4
as §3, with “and then 100 μL was added to” for “and then added to”, “a 96-well plate, the initial” for “a 96-well plate at 100 μL, the initial”, “concentration was 10 μM, followed by” for “concentration was 10M, followed by”

For assay [7], the system named is NCI-H358. Described as above. As to conditions: Homo sapiens, CCK8, 3-4 days. The method, then:
as §4
as §3, with “and then 100 μL was added to” for “and then added to”, “a 96-well plate, the initial” for “a 96-well plate at 100 μL, the initial”, “concentration was 10 μM, followed by” for “concentration was 10M, followed by”

In assay [8] the test system is A549. The assay is described as above. As to conditions: Homo sapiens, CCK8, 3-4 days. The procedure:
as §4
as §3, with “and then 100 μL was added to” for “and then added to”, “a 96-well plate, the initial” for “a 96-well plate at 100 μL, the initial”, “concentration was 10 μM, followed by” for “concentration was 10M, followed by”

Assay [9] relates to A431. The assay is described as above. As to conditions: Homo sapiens, A-431; CCK8, 3-4 days. The procedure: as §4
as §3, with “and then 100 μL was added to” for “and then added to”, “a 96-well plate, the initial” for “a 96-well plate at 100 μL, the initial”, “concentration was 10 μM, followed by” for “concentration was 10M, followed by”

The subject of assay [10] is NUCG-4. The assay is described as above. As to conditions: CCK8, 3-4 days. The method, then:
as §4
as §3, with “and then 100 μL was added to” for “and then added to”, “a 96-well plate, the initial” for “a 96-well plate at 100 μL, the initial”, “concentration was 10 μM, followed by” for “concentration was 10M, followed by”

In the case of `CC[C@@]1(O)C(=O)OCc2c1cc1n(c2=O)Cc2c-1nc1cc3c(cc1c2-c1ccc(N)cc1)OCO3` [Example A1.4, (S)-14-(4-aminophenyl)-7-ethyl-7-hydroxy-10,13-dihydro-11H-[1,3]dioxolo[4,5-g]pyrano[3′,4′:6,7]indolizino[1,2-b]quinolin-8,11(7H)-dione], the EC50 in assay [1] came to 29.4 nM; in assay [2], 29.9 nM.
In the same order, the values of `CC[C@@]1(O)C(=O)OCc2c1cc1n(c2=O)Cc2c-1nc1cc3c(cc1c2CCN(C(=O)CO)C(C)C)OCO3` [Example A1.8, (S)—N-(2-(7-ethyl-7-hydroxy-8,11-dioxo-7,8,11,13-tetrahydro-10H-[1,3]dioxolo[4,5-g]pyrano[3′,4′:6,7]indolizino[1,2-b]quinolin-14-yl)ethyl)-2-hydroxy-N-isopropylacetamide] are 367 nM and 296 nM.
On to `CC[C@@]1(O)C(=O)OCc2c1cc1n(c2=O)Cc2c-1nc1cc3c(cc1c2CCNC(C)C)OCO3` [Example A1.8D, (S) 7-ethyl-7-hydroxy-14-(2-(isopropylamine)ethyl)-10,13-dihydro-11H-[1,3]dioxolo[4,5-g]pyrano[3′,4′:6,7]indolizino[1,2-b]quinolin-8,11(7H)-dione], for which the EC50 in assay [2] turned out to be 7.92 nM.
For `CC[C@@]1(O)C(=O)OCc2c1cc1n(c2=O)Cc2c-1nc1cc(F)c(C)cc1c2CCCO` [Example A1.10, (S)-4-ethyl-8-fluoro-4-hydroxy-11-(3-hydroxypropyl)-9-methyl-1,12-dihydro-14H-pyrano[3′,4′:6,7]indolizino[1,2-b]quinolin-3,14(4H)-dione], the concentration giving a half-maximal response (EC50) turned out to be 5.96 nM in assay [1] and 8.11 nM in [2].
In the same order, the values of `CC[C@@]1(O)C(=O)OCc2c1cc1n(c2=O)Cc2c-1nc1cc(F)c(C)cc1c2CCCN` [Example A1.11, (S)-4-ethyl-8-fluoro-4-hydroxy-11-(3-aminopropyl)-9-methyl-1,12-dihydro-14H-pyrano[3′,4′:6,7]indolizino[1,2-b]quinolin-3,14(4H)-dione] are 284 nM and 203 nM.
On to `CC[C@@]1(O)C(=O)OCc2c1cc1n(c2=O)Cc2c-1nc1cc3c(cc1c2/C=C/CN)OCO3` [Example A1.12, (S,E)-14-(3-amino-1-propylen-1-yl)-7-ethyl-7-hydroxy-10,13-dihydro-11H-[1,3]dioxolo[4,5-g]pyrano[3′,4′:6,7]indolizino[1,2-b]quinolin-8,11(7H)-dione], for which the EC50 in [1] was found to be 212 nM; in assay [2] it was 167 nM.
In the same order, the values of `CC[C@@]1(O)C(=O)OCc2c1cc1n(c2=O)Cc2c-1nc1cc3c(cc1c2/C=C/CO)OCO3` [Example A1.13, (S,E)-14-(3-hydroxy-1-propylen-1-yl)-7-ethyl-7-hydroxy-10,13-dihydro-11H-[1,3]dioxolo[4,5-g]pyrano[3′,4′:6,7]indolizino[1,2-b]quinolin-8,11(7H)-dione] are 96.8 nM and 49.2 nM.
In the same order, the values of `CC[C@@]1(O)C(=O)OCc2c1cc1n(c2=O)Cc2c-1nc1cc(F)c(C)cc1c2/C=C/CO` [Example A1.14, (S,E)-4-ethyl-8-fluoro-4-hydroxy-11-(3-hydroxy-1-propylen-1-yl)-9-methyl-1,12-dihydro-14H-pyrano[3′,4′:6,7]indolizino[1,2-b]quinolin--3,14(4H)-dione] are 156 nM and 123 nM.
Consider `CCCNCCc1c2c(nc3cc4c(cc13)OCO4)-c1cc3c(c(=O)n1C2)COC(=O)[C@]3(O)CC` [Example A1.15a, (S)-7-ethyl-7-hydroxy-14-(2-(n-propylamino)ethyl)-10,13-dihydro-11H-[1,3]dioxolo[4,5-g]pyrano[3′,4′:6,7]indolizino[1,2-b]quinolin-8,11(7H)-dione], for which the concentration for a half-maximal effect (EC50) in assay [3] was 19.5 nM; in assay [1], 3.57 nM; in assay [2], 3.88 nM.
Turning to `CCCN(CCc1c2c(nc3cc4c(cc13)OCO4)-c1cc3c(c(=O)n1C2)COC(=O)[C@]3(O)CC)C(=O)CO` [Example A1.15b, (S)—N-(2-(7-ethyl-7-hydroxy-8,11-dioxo-7,8,11,13-tetrahydro-10H-[1,3]dioxolo[4,5-g]pyrano[3′,4′:6,7]indolizino[1,2-b]quinolin-14-yl)ethyl)-2-hydroxy-N-n-propylacetamide], the values for the EC50 in assay [3] and in assay [1] were 44.6 nM and 47.5 nM, respectively.
Turning to `CC[C@@]1(O)C(=O)OCc2c1cc1n(c2=O)Cc2c-1nc1cc3c(cc1c2-c1ccc(NC(=O)CN)cc1)OCO3` [Example B1.9, (S)-2-amino-N-(4-(7-ethyl-7-hydroxy-8,11-dioxo-7,8,11,13-tetrahydro-10H-[1,3]dioxolo[4,5-g]pyrano[3′,4′:6,7]indolizino[1,2-b]quinolin-14-yl)phenyl)acetamide], in [4], the EC50 is 262 nM.
Same read-out and setting: in the case of `CC[C@@]1(O)C(=O)OCc2c1cc1n(c2=O)Cc2c-1nc1cc(F)c(C)cc1c2CCCOCNC(=O)CN` [Example B1.12, (S)-2-amino-N-((4-(4-ethyl-8-fluoro-4-hydroxy-9-methyl-3,14-dioxo-3,4,12,14-tetrahydro-1H-pyrano[3′,4′:6,7]indolizino[1,2-b]quinolin-11-yl)propoxy)methyl)acetamide] it was 85.9 nM.
In the case of `CC[C@@]1(O)C(=O)OCc2c1cc1n(c2=O)Cc2c-1nc1cc3c(cc1c2CCCOCNC(=O)CN)OCO3` [Example B1.14, (S)-2-amino-N-((3-(7-ethyl-7-hydroxy-8,11-dioxo-7,8,11,13-tetrahydro-10H-[1,3]dioxolo[4,5-g]pyrano[3′,4′:6,7]indolizino[1,2-b]quinolin-14-yl)propoxy)methyl)acetamide], the concentration for a half-maximal effect (EC50) in assay [5] was 368 nM; in assay [6], 34.3 nM; in [7], 581 nM; in assay [8] it was 252 nM; in assay [9] it was 68 nM; in assay [10], 185 nM.
On to `CC[C@@]1(O)C(=O)OCc2c1cc1n(c2=O)Cc2c-1nc1cc(F)c(C)cc1c2/C=C/COCNC(=O)CN` [Example B1.17, (S,E)-2-amino-N-(((3-(4-ethyl-8-fluoro-4-hydroxy-9-methyl-3,14-oxo-3,4,12,14-tetrahydro-1H-pyrano[3′,4′:6,7]indolizino[1,2-b]quinolin-11-yl)allyl)oxy)methyl)acetamide], for which the concentration giving a half-maximal response (EC50) in [4] is 205 nM.

In general, EC50 refers to the concentration at which the effect is half-maximal.
